Data as given in patent US10576062B2, “Carbamoyloxymethyl triazole cyclohexyl acids as LPA antagonists” (Bristol-Myers Squibb Company, priority 2016, dated 2020).

What follows are compounds tested against T1, human LPA1 (Homo sapiens, UniProt Q92633) (assay: LPA1 functional antagonist assay (LPA-induced calcium flux)). Settings: CHO cells overexpressing human LPA1; inhibition of calcium flux induced by 10 nM LPA; read-out: hLPA1 IC50.
T1 construct: expressed in transfected cells; host or cells: Chinese hamster ovary (CHO) cells
Type: cell-based
Method in brief: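 CHO cells overexpressing human LPA1, loaded with calcium dye 30 min at 37° C, were preincubated 20 min at room temperature with compound (0.08 nM–5 μM, 0.5% DMSO) in HBSS/20 mM HEPES/0.1% fatty acid-free BSA.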

T1 sequence (Q92633 whole entry): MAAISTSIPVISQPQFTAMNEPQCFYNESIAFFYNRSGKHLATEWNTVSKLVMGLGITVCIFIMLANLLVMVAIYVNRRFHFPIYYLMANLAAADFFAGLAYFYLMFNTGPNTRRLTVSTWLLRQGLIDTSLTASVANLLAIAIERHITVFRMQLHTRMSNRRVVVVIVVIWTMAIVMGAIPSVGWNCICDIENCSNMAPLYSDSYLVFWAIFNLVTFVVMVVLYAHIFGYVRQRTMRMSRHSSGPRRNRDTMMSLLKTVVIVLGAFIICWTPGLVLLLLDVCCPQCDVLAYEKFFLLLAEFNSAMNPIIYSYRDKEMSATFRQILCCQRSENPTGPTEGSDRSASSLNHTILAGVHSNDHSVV

**Q.** For `CCc1nc(-c2nnn(C)c2COC(=O)N(C)CC2CC2)ccc1O[C@H]1CCC[C@H](C(=O)O)C1` [Example 194, (1S,3S)-3-((6-(5-((((cyclopropylmethyl)(methyl)carbamoyl)oxy)methyl)-1-methyl-1H-1,2,3-triazol-4-yl)-2-ethylpyridin-3-yl)oxy)cyclohexane-1-carboxylic acid], which IC50 is on record?
**A.** 14 nM

**Q.** For `CCc1nc(-c2nnn(C)c2COC(=O)N(C)C2CCCC2)ccc1O[C@H]1CCC[C@H](C(=O)O)C1` [Example 195, (1S,3S)-3-((6-(5-(((cyclopentyl(methyl)carbamoyl)oxy)methyl)-1-methyl-1H-1,2,3-triazol-4-yl)-2-ethylpyridin-3-yl)oxy)cyclohexane-1-carboxylic acid], which IC50 is on record?
**A.** 11 nM

**Q.** `CCc1nc(-c2nnn(C)c2COC(=O)N(C)CC(C)C)ccc1O[C@H]1CCC[C@H](C(=O)O)C1` [Example 197, (1S,3S)-3-((2-ethyl-6-(5-(((isobutyl(methyl)carbamoyl)oxy)methyl)-1-methyl-1H-1,2,3-triazol-4-yl)pyridin-3-yl)oxy)cyclohexane-1-carboxylic acid] was tested. Which IC50 did it give?
**A.** 27 nM

**Q.** Which IC50 does the source give for `CCc1nc(-c2nnn(C)c2COC(=O)NCc2ccccc2)ccc1O[C@H]1CCC[C@H](C(=O)O)C1` [Example 198, (1S,3S)-3-((6-(5-(((benzylcarbamoyl)oxy)methyl)-1-methyl-1H-1,2,3-triazol-4-yl)-2-ethylpyridin-3-yl)oxy)cyclohexane-1-carboxylic acid] here?
**A.** 46 nM

**Q.** `CCCCN(C)C(=O)OCc1c(-c2ccc(O[C@H]3CCC[C@H](C(=O)O)C3)c(CC)n2)nnn1C` [Example 199, (1S,3S)-3-((6-(5-(((butyl(methyl)carbamoyl)oxy)methyl)-1-methyl-1H-1,2,3-triazol-4-yl)-2-ethylpyridin-3-yl)oxy)cyclohexane-1-carboxylic acid] was tested. Which IC50 did it give?
**A.** 7 nM

**Q.** How did the IC50 turn out when `CCCN(C)C(=O)OCc1c(-c2ccc(O[C@H]3CCC[C@H](C(=O)O)C3)c(CC)n2)nnn1C` [Example 200, (1S,3S)-3-((2-ethyl-6-(1-methyl-5-(((methyl(propyl)carbamoyl)oxy)methyl)-1H-1,2,3-triazol-4-yl)pyridin-3-yl)oxy)cyclohexane-1-carboxylic acid] was run?
**A.** 11 nM

**Q.** With `CCc1nc(-c2nnn(C)c2COC(=O)N(C)Cc2ccccc2)ccc1O[C@H]1CCC[C@H](C(=O)O)C1` [Example 201, (1S,3S)-3-((6-(5-(((benzyl(methyl)carbamoyl)oxy)methyl)-1-methyl-1H-1,2,3-triazol-4-yl)-2-ethylpyridin-3-yl)oxy)cyclohexane-1-carboxylic acid] as the compound, how does the IC50 read?
**A.** 25 nM

**Q.** For `CCc1nc(-c2nnn(C)c2COC(=O)N(C)CC)ccc1O[C@H]1CCC[C@H](C(=O)O)C1` [Example 202, (1S,3S)-3-((2-ethyl-6-(5-(((ethyl(methyl)carbamoyl)oxy)methyl)-1-methyl-1H-1,2,3-triazol-4-yl)pyridin-3-yl)oxy)cyclohexane-1-carboxylic acid], which IC50 is on record?
**A.** 160 nM

**Q.** For `CCc1nc(-c2nnn(C)c2COC(=O)N(C)C2CCC2)ccc1O[C@H]1CCC[C@H](C(=O)O)C1` [Example 203, (1S,3S)-3-((6-(5-(((cyclobutyl(methyl)carbamoyl)oxy)methyl)-1-methyl-1H-1,2,3-triazol-4-yl)-2-ethylpyridin-3-yl)oxy)cyclohexane-1-carboxylic acid], which IC50 is on record?
**A.** 8 nM

**Q.** With `CCc1nc(-c2nnn(C)c2COC(=O)N2CC(C)(C)C2)ccc1O[C@H]1CCC[C@H](C(=O)O)C1` [Example 204, (1S,3S)-3-((6-(5-(((3,3-dimethylazetidine-1-carbonyl)oxy)methyl)-1-methyl-1H-1,2,3-triazol-4-yl)-2-ethylpyridin-3-yl)oxy)cyclohexane-1-carboxylic acid] as the compound, how does the IC50 read?
**A.** 102 nM

**Q.** For `CCc1nc(-c2nnn(C)c2COC(=O)NC23CC(C2)C3)ccc1O[C@H]1CCC[C@H](C(=O)O)C1` [Example 205, (1S,3S)-3-((6-(5-(((bicyclo[1.1.1]pentan-1-ylcarbamoyl)oxy)methyl)-1-methyl-1H-1,2,3-triazol-4-yl)-2-ethylpyridin-3-yl)oxy)cyclohexane-1-carboxylic acid], which IC50 is on record?
**A.** 842 nM

**Q.** `CCc1nc(-c2nnn(C)c2COC(=O)N(C)C23CC(C2)C3)ccc1O[C@H]1CCC[C@H](C(=O)O)C1` [Example 206, (1S,3S)-3-((6-(5-(((bicyclo[1.1.1]pentan-1-yl(methyl)carbamoyl)oxy)methyl)-1-methyl-1H-1,2,3-triazol-4-yl)-2-ethylpyridin-3-yl)oxy)cyclohexane-1-carboxylic acid] was tested. Which IC50 did it give?
**A.** 34 nM

**Q.** Which IC50 does the source give for `CCCC1(N(C)C(=O)OCc2c(-c3ccc(O[C@H]4CCC[C@H](C(=O)O)C4)c(CC)n3)nnn2C)CC1` [Example 207, (1S,3S)-3-((2-ethyl-6-(1-methyl-5-(((methyl(1-propylcyclopropyl)carbamoyl)oxy)methyl)-1H-1,2,3-triazol-4-yl)pyridin-3-yl)oxy)cyclohexane-1-carboxylic acid] here?
**A.** 133 nM

**Q.** For `CCc1nc(-c2nnn(C)c2COC(=O)N(C)CCC(C)C)ccc1O[C@H]1CCC[C@H](C(=O)O)C1` [Example 208, (1S,3S)-3-((2-ethyl-6-(5-(((isopentyl(methyl)carbamoyl)oxy)methyl)-1-methyl-1H-1,2,3-triazol-4-yl)pyridin-3-yl)oxy)cyclohexane-1-carboxylic acid], which IC50 is on record?
**A.** 26 nM

**Q.** Which IC50 does the source give for `CCc1nc(-c2nnn(C)c2COC(=O)N(C)CCC2CC2)ccc1O[C@H]1CCC[C@H](C(=O)O)C1` [Example 209, (1S,3S)-3-((6-(5-((((2-cyclopropylethyl)(methyl)carbamoyl)oxy)methyl)-1-methyl-1H-1,2,3-triazol-4-yl)-2-ethylpyridin-3-yl)oxy)cyclohexane-1-carboxylic acid] here?
**A.** 22 nM

**Q.** Which IC50 does the source give for `CCc1nc(-c2nnn(C)c2COC(=O)N2CC3(CCC3)C2)ccc1O[C@H]1CCC[C@H](C(=O)O)C1` [Example 210, (1S,3S)-3-((6-(5-(((2-azaspiro[3.3]heptane-2-carbonyl)oxy)methyl)-1-methyl-1H-1,2,3-triazol-4-yl)-2-ethylpyridin-3-yl)oxy)cyclohexane-1-carboxylic acid] here?
**A.** 67 nM

**Q.** How did the IC50 turn out when `CCc1nc(-c2nnn(C)c2COC(=O)N2CCC3(CC3)C2)ccc1O[C@H]1CCC[C@H](C(=O)O)C1` [Example 211, (1S,3S)-3-((6-(5-(((5-azaspiro[2.4]heptane-5-carbonyl)oxy)methyl)-1-methyl-1H-1,2,3-triazol-4-yl)-2-ethylpyridin-3-yl)oxy)cyclohexane-1-carboxylic acid] was run?
**A.** 47 nM

**Q.** For `CCCCN(C)C(=O)OCc1c(-c2cnc(O[C@H]3CCC[C@H](C(=O)O)C3)cn2)nnn1C` [Example 212, (1S,3S)-3-((5-(5-(((butyl(methyl)carbamoyl)oxy)methyl)-1-methyl-1H-1,2,3-triazol-4-yl)pyrazin-2-yl)oxy)cyclohexane-1-carboxylic acid], which IC50 is on record?
**A.** 40 nM

**Q.** `CN(CC1CC1)C(=O)OCc1c(-c2cnc(O[C@H]3CCC[C@H](C(=O)O)C3)cn2)nnn1C` [Example 213, (1S,3S)-3-((5-(5-((((cyclopropylmethyl)(methyl)carbamoyl)oxy)methyl)-1-methyl-1H-1,2,3-triazol-4-yl)pyrazin-2-yl)oxy)cyclohexane-1-carboxylic acid] was tested. Which IC50 did it give?
**A.** 1070 nM

**Q.** How did the IC50 turn out when `CN(CC1CCC1)C(=O)OCc1c(-c2cnc(O[C@H]3CCC[C@H](C(=O)O)C3)cn2)nnn1C` [Example 214, (1S,3S)-3-((5-(5-((((cyclobutylmethyl)(methyl)carbamoyl)oxy)methyl)-1-methyl-1H-1,2,3-triazol-4-yl)pyrazin-2-yl)oxy)cyclohexane-1-carboxylic acid] was run?
**A.** 68 nM

**Q.** Which IC50 does the source give for `CN(C(=O)OCc1c(-c2cnc(O[C@H]3CCC[C@H](C(=O)O)C3)cn2)nnn1C)C1CCCC1` [Example 215, (1S,3S)-3-((5-(5-(((cyclopentyl(methyl)carbamoyl)oxy)methyl)-1-methyl-1H-1,2,3-triazol-4-yl)pyrazin-2-yl)oxy)cyclohexane-1-carboxylic acid] here?
**A.** 84 nM

**Q.** `CCCN(C)C(=O)OCc1c(-c2cnc(O[C@H]3CCC[C@H](C(=O)O)C3)c(C)n2)nnn1C` [Example 218, (1S,3S)-3-((3-methyl-5-(1-methyl-5-(((methyl(propyl)carbamoyl)oxy)methyl)-1H-1,2,3-triazol-4-yl)pyrazin-2-yl)oxy)cyclohexane-1-carboxylic Acid] was tested. Which IC50 did it give?
**A.** 194 nM

**Q.** With `CCCCN(C)C(=O)OCc1c(-c2cnc(O[C@H]3CCC[C@H](C(=O)O)C3)c(C)n2)nnn1C` [Example 219, (1S,3S)-3-((5-(5-(((butyl(methyl)carbamoyl)oxy)methyl)-1-methyl-1H-1,2,3-triazol-4-yl)-3-methylpyrazin-2-yl)oxy)cyclohexane-1-carboxylic acid] as the compound, how does the IC50 read?
**A.** 21 nM

**Q.** With `Cc1nc(-c2nnn(C)c2COC(=O)N(C)CC2CC2)cnc1O[C@H]1CCC[C@H](C(=O)O)C1` [Example 220, (1S,3S)-3-((5-(5-((((cyclopropyl-methyl)(methyl)carbamoyl)oxy)methyl)-1-methyl-1H-1,2,3-triazol-4-yl)-3-methyl-pyrazin-2-yl)oxy)cyclohexane-1-carboxylic acid] as the compound, how does the IC50 read?
**A.** 149 nM

**Q.** `Cc1nc(-c2nnn(C)c2COC(=O)N(C)CCC(C)C)cnc1O[C@H]1CCC[C@H](C(=O)O)C1` [Example 222, (1S,3S)-3-((5-(5-(((isopentyl(methyl)carbamoyl)oxy)methyl)-1-methyl-1H-1,2,3-triazol-4-yl)-3-methylpyrazin-2-yl)oxy)cyclohexane-1-carboxylic acid] was tested. Which IC50 did it give?
**A.** 19 nM

**Q.** How did the IC50 turn out when `CCCCCN(C)C(=O)OCc1c(-c2cnc(O[C@H]3CCC[C@H](C(=O)O)C3)c(C)n2)nnn1C` [Example 223, (1S,3S)-3-((3-methyl-5-(1-methyl-5-(((methyl(pentyl)carbamoyl)oxy)methyl)-1H-1,2,3-triazol-4-yl)pyrazin-2-yl)oxy)cyclohexane-1-carboxylic acid] was run?
**A.** 56 nM

Same assay, conditions: human LPA1; read-out: hLPA1 IC50

**Q.** For `CCCN(C)C(=O)OCc1c(-c2ccc(O[C@@H]3CCC[C@@H](C(=O)O)C3)c(C)n2)nnn1C` [Example 193, (1R,3R)-3-((2-methyl-6-(1-methyl-5-(((methyl(propyl)carbamoyl)oxy)methyl)-1H-1,2,3-triazol-4-yl)pyridin-3-yl)oxy)cyclohexane-1-carboxylic acid], which IC50 is on record?
**A.** 1700 nM
